Several values for one entry are separate records, joined by “and”; a condition that tells them apart may be missing. Equal values may be shown once. Read-outs that look alike come from different tables or passages of the source.
Assays:
monomeric CDK1 = molecular target: T1, monomeric CDK1 (Homo sapiens, UniProt P06493); experiment: Differential scanning fluorimetry (DSF), CDK1; type: binding; conditions: read-out: ΔTm CDK1
T1 construct: Full-length human CDK1 was expressed in insect cells either untagged (from pVL1393) or as a 3C-protease cleavable GST fusion; GST (N, cleaved yes); made in house; host or cells: insect cells (Sf9 baculovirus)
Experimental: (§1) The stability of the CDK1 and CDK2 inhibitor complexes were assessed by differential scanning fluorimetry (DSF) using a ViiA7 Real-Time PCR system (Applied Biosystems). Purified CDK1 (4 μM) and CDK2 (6 uM) in their respective gel filtration buffers were assayed in the presence of 10 μM inhibitor in 8% DMSO, in triplicate, in a 384-well plate. […] The resulting data was plotted and the inflection point (Tm) calculated using the Boltzmann equation in Applied Biosystems software.

CDK1-cyclin B [1] = conditions: read-out: IC50 Published measurements CDK1B; scintillation proximity assay; ref Whittaker et al., 2017; Byth et al., 2009; cited from earlier work
monomeric CDK2 = molecular target: T2, monomeric CDK2 (Homo sapiens, UniProt P24941); experiment: biochemical; type: binding; conditions: DSF; phosphorylated monomeric CDK2; 10 μM inhibitor
T2 construct: Human CDK2 (encompassing full length residues 1-298); GST (N, cleaved yes); made in house; host or cells: E. coli
Experimental: as §1

CDK1-cyclin B [2] = conditions: radiolabelled γ33P-ATP kinase assay, read-out: IC50 Published measurements CDK1B, cited from earlier work
CDK1-cyclin B [3] = molecular target: T3, CDK1-cyclin B (Homo sapiens, UniProt P06493); experiment: biochemical; type: binding; conditions: phosphorylated CDK1-cyclin B complex; 30°C; n = 2, ± SD; read-out: ITC Kd CDK1B
T3 construct: Full-length human CDK1 was expressed in insect cells either untagged (from pVL1393) or as a 3C-protease cleavable GST fusion; GST (N, cleaved yes); made in house; host or cells: CDK1: insect cells (Sf9 baculovirus); cyclin B1: E. coli
Experimental: (§2) Individual protein samples were exchanged into ITC buffer (40 mM HEPES, 500 mM NaCl, 0.25 mM TCEP, pH 8.0) at 4°C using a Hitrap desalting column (GE Healthcare Life Sciences, Chicago, IL, USA) (i.e. CDK1 and cyclin B were not combined to form a complex prior to buffer exchange). Protein concentration was then determined at A280 nm using a Nanodrop 2000 (Thermoscientific, Waltham, MA, USA) and sequence derived extinction coefficients (http://web.expasy.org/protparam/). Proteins and compounds were degassed at 30°C directly before analysis. Compounds at 100 μM prepared in ITC buffer (40 mM HEPES, 500 mM NaCl, 0.25 mM TCEP, pH 8.0) and to a final DMSO concentration of 1% were titrated into 200 μL protein solutions prepared at 10 μM, 1% DMSO in the cell. All experiments used phosphorylated forms of CDK1 and CDK2 (on T161 or T160 respectively). For experiments carried out in the absence of cyclin, proteins were prepared on ice to a final concentration of 10 μM in ITC buffer and supplemented with 1% DMSO.

[4] = molecular target: T4, phosphorylated monomeric CDK1 (Homo sapiens, UniProt P06493); experiment: biochemical; type: binding; conditions: phosphorylated monomeric (cyclin-free) CDK1; 30°C; n = 2, ± SD; read-out: ITC Kd CDK1
T4 construct: Full-length human CDK1 was expressed in insect cells either untagged (from pVL1393) or as a 3C-protease cleavable GST fusion; GST (N, cleaved yes); made in house; host or cells: insect cells (Sf9 baculovirus)
Experimental: as §2

[5] = molecular target: T5, phosphorylated monomeric CDK2 (Homo sapiens, UniProt P24941); experiment: biochemical; type: binding; conditions: phosphorylated monomeric (cyclin-free) CDK2; 30°C; n = 2, ± SD; read-out: ITC Kd CDK2
T5 construct: Human CDK2 (encompassing full length residues 1-298); GST (N, cleaved yes); made in house; host or cells: E. coli
Experimental: as §2

[6] = molecular target: T6, GST-tagged unphosphorylated CDK1 (Homo sapiens, UniProt P06493); experiment: biochemical; type: binding; conditions: unphosphorylated monomeric GST-CDK1; 20°C; duplicate, ± SD; read-out: SPR Kd CDK1
T6 construct: Full-length human CDK1 was expressed in insect cells either untagged (from pVL1393) or as a 3C-protease cleavable GST fusion; made in house; host or cells: insect cells (Sf9 baculovirus)
Experimental: (§3) SPR ligand interactions assays were performed on a Biacore S200 (GE Healthcare Life Sciences) at 20°C using multi-cycle settings. GST-tagged unphosphorylated CDK1 and CDK2 were immobilised onto the surface of a CM5 chip pre-immobilised with anti-GST antibody, provided as part of the GST-capture kit (GE Healthcare Life Sciences, catalogue number BR100223) following the GST immobilisation kit instructions. As a control, recombinant GST was immobilised onto the designated control flow cell. […] Preceding injection of each compound, three cycles of buffer injections were carried out over all surfaces (30 μL/min for 60 s with 360 s dissociation). Compounds were then injected over all surfaces (from low to high concentration) for 60 s at 30 μL/min before being allowed to dissociate for 360 s to record dose-responses. […] The experiment was conducted in SPR running buffer (20 mM HEPES, 150 mM NaCl, 0.01% Tween-20®, 1% DMSO, pH 7.4) and used an 8-point DMSO solvent correction (preparation of DMSO in DMSO-free SPR buffer to final concentrations of: 0.2%, 0.4%, 0.6%, 0.8% 1%, 1.2%, 1.4%, 1.6%) to account for any bulk flow interactions.

[7] = molecular target: T7, GST-tagged unphosphorylated CDK2 (Homo sapiens, UniProt P24941); experiment: biochemical; type: binding; conditions: unphosphorylated monomeric GST-CDK2; 20°C; duplicate, ± SD; read-out: SPR Kd CDK2
T7 construct: Human CDK2 (encompassing full length residues 1-298); made in house; host or cells: E. coli BL21(DE3)STAR
Experimental: as §3

CDK1-cyclin B [8] = molecular target: T3, CDK1-cyclin B; experiment: biochemical; conditions: ADP-Glo, 20 μM ATP, 20 μM peptide, 4 nM CDK1-cyclin B
Experimental: (§4) Briefly, the 5 inhibitors in the study were titrated against phosphorylated CDK2–cyclin A and CDK1–cyclin B, with reaction initiated through addition of ATP and substrate peptide HHASPRK (Enzo Scientific). ATP to ADP conversion was assessed using the ADP-Glo assay (Promega) essentially as described by the manufacturers. […] Reactions were initiated by the addition of 20 μM ATP and 20 μM peptide. All activity assays were performed in triplicate in white low volume 384-well plates using a PheraStar plate reader (BMG).

CDK2-cyclin A [9] = molecular target: T8, CDK2-cyclin A (Homo sapiens, UniProt P24941); experiment: biochemical; parameters: Human CDK2 (encompassing full length residues 1-298); GST (N, cleaved yes); made in house; host or cells: E. coli; conditions: ADP-Glo, 20 μM ATP, 20 μM peptide, 1.5 nM CDK2-cyclin A
Experimental: as §4

CDK2-cyclin A [10] = molecular target: T8, CDK2-cyclin A; experiment: biochemical; type: binding; parameters: Human CDK2 (encompassing full length residues 1-298); GST (N, cleaved yes); made in house; host or cells: E. coli (CDK2 and cyclin A2); conditions: phosphorylated CDK2-cyclin A complex; 30°C; n = 2, ± SD; read-out: ITC Kd CDK2A
Experimental: as §2

CDK2-cyclin A [11] = conditions: radiolabelled γ33P-ATP kinase assay; ref Lane et al., 2001; read-out: IC50 Published measurements CDK2A; cited from earlier work
[12] = DSF, phosphorylated monomeric CDK1, 10 μM inhibitor

T3 sequence (P06493 whole entry, the tested form may be a part): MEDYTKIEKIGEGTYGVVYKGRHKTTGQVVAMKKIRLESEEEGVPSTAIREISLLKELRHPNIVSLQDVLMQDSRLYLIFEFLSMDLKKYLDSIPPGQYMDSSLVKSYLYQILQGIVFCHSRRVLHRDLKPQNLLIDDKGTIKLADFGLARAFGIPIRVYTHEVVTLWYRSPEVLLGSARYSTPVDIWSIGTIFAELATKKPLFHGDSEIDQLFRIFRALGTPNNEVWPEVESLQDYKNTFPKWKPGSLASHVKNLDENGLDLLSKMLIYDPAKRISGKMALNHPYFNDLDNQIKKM
T3 sequence (P14635 with tags, fused parts or gaps C167S/C238S/C350S partner limits assumed): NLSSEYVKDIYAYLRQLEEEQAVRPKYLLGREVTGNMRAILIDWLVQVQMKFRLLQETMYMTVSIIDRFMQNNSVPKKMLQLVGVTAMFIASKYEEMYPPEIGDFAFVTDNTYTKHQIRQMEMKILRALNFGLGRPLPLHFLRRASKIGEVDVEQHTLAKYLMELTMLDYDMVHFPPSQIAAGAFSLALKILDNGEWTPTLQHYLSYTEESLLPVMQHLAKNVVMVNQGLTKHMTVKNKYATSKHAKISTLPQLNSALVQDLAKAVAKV
T1 sequence (P06493 whole entry, the tested form may be a part): as the sequence (P06493 whole entry, the tested form may be a part) above
T6 sequence (P06493 whole entry, the tested form may be a part): as above
T4 sequence (P06493 whole entry, the tested form may be a part): as above

Which ΔTm at 10 µM (monomeric CDK1; [12]) does the source give for Cc1ncc(-c2ccnc(Nc3ccc(S(C)(=O)=O)cc3)n2)n1C(C)C [AZD5438] here?
Its ΔTm at 10 µM is -2.6 °C.

What about the IC50 (CDK1-cyclin B [1]) of the same compound?
Its IC50 is 16 nM.

Which ΔTm at 10 µM (monomeric CDK1; [12]) does the source give for CN1CC[C@H](c2c(O)cc(O)c3c(=O)cc(-c4ccccc4Cl)oc23)[C@H](O)C1 [Alvocidib] here?
The ΔTm at 10 µM was 0.9 °C.

And the ΔTm at 10 µM (monomeric CDK2)?
Its ΔTm at 10 µM is 7.3 °C.

With CCn1cnc2c(Nc3cccc(Cl)c3)nc(NC3CCCCC3N)nc21 (stereo not shown) [CGP74514A] as the compound, how does the Kd (CDK1-cyclin B [3]) read?
The Kd was 950 ± 50 nM.

What about the Kd [4] of the same compound?
The Kd was over 20000 nM.

What about the Kd [5] of the same compound?
The Kd was 715 ± 15 nM.

What about the Kd [6] of the same compound?
Its Kd is 13500 nM.

What about the Kd [7] of the same compound?
The Kd was 312 ± 52 nM.

And the ΔTm at 10 µM (monomeric CDK1)?
The ΔTm at 10 µM was -3.3 °C.

And the ΔTm at 10 µM (monomeric CDK2)?
Its ΔTm at 10 µM is 5.2 °C.

What about the IC50 (CDK1-cyclin B [8]; read-out: IC50 Lab measurements CDK1B) of the same compound?
The IC50 was 833 nM.

And the Ki (CDK1-cyclin B [8]; read-out: Ki (in parenthesis) Lab measurements CDK1B)?
The Ki was 463 nM.

And the IC50 (CDK1-cyclin B [2]; ref Imbach et al., 1999)?
The IC50 was 25 nM.

And the IC50 (CDK2-cyclin A [9]; read-out: IC50 Lab measurements CDK2A)?
The IC50 was 33 nM.

What about the Ki (CDK2-cyclin A [9]; read-out: Ki (in parenthesis) Lab measurements CDK2A) of the same compound?
Its Ki is 18.3 nM.

And the Kd (CDK2-cyclin A [10])?
The Kd was 224 ± 14 nM.
